Results taken from PubChem BioAssay AID1963843 (Molecular Pharmacology Branch, DTP, NCI, 2024).
Where “and” joins values, the source holds several entries; their conditions need not be identical. Identical values can stand only once.

Tested on: 616215-338-R-J1-PDC complex spheroid viability
Experiment: Anticancer human tumor 616215-338-R-J1-PDC patient-derived colon adenocarcinoma cell line growth inhibition [POLQ]
Settings: for viability, T/C: stronger effect = lower value; active means viability on the fitted dose curve at most 10% of control; inactive means the rest
Method: Multicellular complex tumor spheroid response to Polymerase (POL) inhibitors (novobiocin, ART-558, RP6685) in combination with a variety of drugs and investigational agents in selected tumor cell lines
The POL inhibitors (novobiocin, ART-558, and RP6685) were evaluated both individually and in combination with standard of care and investigational anticancer small molecules within a complex spheroid model of solid tumors. . Complex spheroids include a stromal component modeled by human endothelial cells (HUVEC) and fibroblasts modeled by human mesenchymal stem cells (MSCs). The concentration ranges selected for each drug and investigational agent were based upon clinically achievable concentrations if the clinical Cmax of the agent was known.
Compounds. The drugs and investigational agents: novobiocin (NSC847541), ART-558 (NSC835418), RP-6685 (NSC848927), peposertib (NSC802822), ceralasertib (NSC780249), elimusertib (NSC800525), camonsertib (NSC841442), AZD-1390 (NSC803789), olaparib (NSC753686), talazoparib (NSC767125), rucaparib (NSC756644), sotorasib (NSC818433), MRTX-1133 (NSC836407), SN-38 (NSC673596), topotecan (NSC609699), epotoside (NSC141540), doxorubicin (NSC123127), gemcitabine (NSC613327), 5-fluorouracil (NSC19893), paclitaxel (NSC125973), vemurafenib (NSC761431), MSA-2 (NSC828583), SN-011 (NSC837082), adavosertib (NSC754352), prexasertib (NSC758257), carboplatin (NSC241240) and oxaliplatin (NSC266046), were obtained from the National Cancer Institute (NCI) Developmental Therapeutics Program Chemical Repository (21). The FDA-approved anticancer drug set is available from the Developmental Therapeutics Program at https://dtp.cancer.gov/organization/dscb/obtaining/. […] The stock solutions were prepared in dimethyl sulfoxide (DMSO, Sigma-Aldrich, St. Louis, MO, cat. D2650), except for the platinum compounds which were prepared in saline (Quality Biological, Gaithersburg, MD, cat. 114-055-101), at 800-fold the tested concentration and stored at -70 degrees C prior to their use. All drugs and investigational agents were tested over a range starting from a high concentration at or near the clinical Cmax and decreasing in half-log increments. If the clinical Cmax for an agent had not been determined, the highest concentration tested was 10 microM, except for SN-38, which was tested at a high concentration of 1 microM.
Cell Culture. All cells were maintained in an incubator at 37 degrees C and 5% CO2 with 95% humidity. The PDC lines were cultured according to standard operating procedures established by the NCI PDMR (https://pdmr.cancer.gov). Table 3 of the manuscript, lists the cell lines along with the number of the three cell types plated to form the mct-spheroids and media for tumor cell growth. After thawing, all PDC lines, except 997537-175-T-J1-PDC and 415267-285-R-J2-PDC, were cultured in Matrigel-coated flasks prepared with a working solution of 1X Ham's F-12 nutrient mix, without supplementation (Thermo Fisher Scientific, cat. 11765054), 100 U/mL penicillin-streptomycin (Thermo Fisher Scientific, cat. 15140122), and 2.5% Matrigel (Corning Inc., Corning, NY, cat. 354248) for the first three passages. The two PDC lines 997537-175-T-J1-PDC and 415267-285-R-J2-PDC were cultured on uncoated flasks. The 857933-349-R-J2-PDC line was cultured in 6C/Colon 1B media containing advanced DMEM/F-12 (Thermo Fisher Scientific, cat. 12634028), 10 mM HEPES (Thermo Fisher Scientific, cat. 15630080), 1X GlutaMAX supplement (Thermo Fisher Scientific, cat. 35050061), 0.1 mg/mL primocin (InvivoGen, San Diego, CA, cat. ant-pm-2), 10% defined fetal bovine serum, heat inactivated (HyClone Laboratories Inc., Logan, UT, cat. SH30070.03HI), 50% L-WRN conditioned media (ATCC, cat. CRL-3276), 1.25 mM N-Acetyl-L-cysteine (Sigma-Aldrich, cat. A9165), 10 mM nicotinamide (Sigma-Aldrich, cat. N0636), 1X B-27 supplement (Thermo Fisher Scientific, cat. 17504044), 1X N-2 supplement (Thermo Fisher Scientific, cat. […]

[1] = compound alone, run of 12/05/2023
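Further: spheroids exposed to compounds for one week before readout.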
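Wherever viability, T/C is given: percent viability relative to DMSO vehicle wells taken as 100%.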

CC(C)n1c(=O)n(C)c2cnc3cc(F)c(-c4ccc(OCCCN5CCCCC5)nc4)cc3c21 + COC1C(OC(N)=O)C(O)C(Oc2ccc3c(O)c(NC(=O)c4ccc(O)c(CC=C(C)C)c4)c(=O)oc3c2C)OC1(C)C
> 10 µM: IC50 (curve of first compound, second compound 0.0316 µM) | IC50 (curve of first compound, second compound 0.1 µM) | IC50 (curve of first compound, second compound 0.316 µM) | IC50 (curve of first compound, second compound 1 µM) | IC50 (curve of first compound, second compound 3.16 µM) | IC50 (curve of first compound, second compound 10 µM)
inactive: viability, T/C (second compound 0.0316 µM, first compound 0.0316 µM) 92.8% | viability, T/C (second compound 0.0316 µM, first compound 0.1 µM) 94.6% | viability, T/C (second compound 0.0316 µM, first compound 0.316 µM) 104% | viability, T/C (second compound 0.0316 µM, first compound 1 µM) 109% | viability, T/C (second compound 0.0316 µM, first compound 3.16 µM) 130% | viability, T/C (second compound 0.0316 µM, first compound 10 µM) 104% | viability, T/C (second compound 0.1 µM, first compound 0.0316 µM) 97.8% | viability, T/C (second compound 0.1 µM, first compound 0.1 µM) 98.6% | viability, T/C (second compound 0.1 µM, first compound 0.316 µM) 101% | viability, T/C (second compound 0.1 µM, first compound 1 µM) 108% | viability, T/C (second compound 0.1 µM, first compound 3.16 µM) 112% | viability, T/C (second compound 0.1 µM, first compound 10 µM) 113% | viability, T/C (second compound 0.316 µM, first compound 0.0316 µM) 108% | viability, T/C (second compound 0.316 µM, first compound 0.1 µM) 98.6% | viability, T/C (second compound 0.316 µM, first compound 0.316 µM) 104% | viability, T/C (second compound 0.316 µM, first compound 1 µM) 99.6% | viability, T/C (second compound 0.316 µM, first compound 3.16 µM) 121% | viability, T/C (second compound 0.316 µM, first compound 10 µM) 99.5% | viability, T/C (second compound 1 µM, first compound 0.0316 µM) 117% | viability, T/C (second compound 1 µM, first compound 0.1 µM) 117% | viability, T/C (second compound 1 µM, first compound 0.316 µM) 95.2% | viability, T/C (second compound 1 µM, first compound 1 µM) 106% | viability, T/C (second compound 1 µM, first compound 3.16 µM) 116% | viability, T/C (second compound 1 µM, first compound 10 µM) 102% | viability, T/C (second compound 3.16 µM, first compound 0.0316 µM) 112% | viability, T/C (second compound 3.16 µM, first compound 0.1 µM) 111% | viability, T/C (second compound 3.16 µM, first compound 0.316 µM) 109% | viability, T/C (second compound 3.16 µM, first compound 1 µM) 105% | viability, T/C (second compound 3.16 µM, first compound 3.16 µM) 99.6% | viability, T/C (second compound 3.16 µM, first compound 10 µM) 93.2% | viability, T/C (second compound 10 µM, first compound 0.0316 µM) 99.9% | viability, T/C (second compound 10 µM, first compound 0.1 µM) 102% | viability, T/C (second compound 10 µM, first compound 0.316 µM) 101% | viability, T/C (second compound 10 µM, first compound 1 µM) 102% | viability, T/C (second compound 10 µM, first compound 3.16 µM) 107% | viability, T/C (second compound 10 µM, first compound 10 µM) 94.5%

COc1ccc([C@@H](O)c2cc(-c3ncnc4cc(N5CCOCC5)ccc34)c(F)cc2Cl)nn1
inactive: viability, T/C (compound 0.0316 µM) 115% and 87.7% and 103% | viability, T/C (compound 0.1 µM) 107% and 104% and 100% | viability, T/C (compound 0.316 µM) 105% and 93.9% and 110% | viability, T/C (compound 1 µM) 93.6% and 86.9% and 104% | viability, T/C (compound 3.16 µM) 100% and 81.2% and 104% | viability, T/C (compound 10 µM) 69.3% and 54.8% and 75.3%
> 10 µM: IC50 (curve of compound)

COc1cc(C2c3cc4c(cc3C(OC3OC5COC(C)OC5C(O)C3O)C3COC(=O)C23)OCO4)cc(OC)c1O (stereo not given)
inactive: viability, T/C (compound 0.0316 µM) 96.8% and 101% and 99.5% | viability, T/C (compound 0.1 µM) 107% and 95.5% and 104% | viability, T/C (compound 0.316 µM) 86.7% and 58% and 91.3% | viability, T/C (compound 1 µM) 88.7% and 52.2% and 78.8% | viability, T/C (compound 3.16 µM) 76.6% and 46.9% and 73% | viability, T/C (compound 10 µM) 46.8% and 28.6% and 54.6%
9.06 µM and 1.04 µM and > 10 µM: IC50 (curve of compound)

Nc1ccc(C#CCN(C(=O)Cc2ncc(C(F)(F)F)cc2C(F)(F)F)c2ccc(F)cc2)nn1
inactive: viability, T/C (compound 0.0316 µM) 103% [middle of 13 runs] | viability, T/C (compound 0.1 µM) 104% [middle of 13 runs] | viability, T/C (compound 0.316 µM) 105% [middle of 13 runs] | viability, T/C (compound 1 µM) 102% [middle of 13 runs] | viability, T/C (compound 3.16 µM) 102% [middle of 13 runs] | viability, T/C (compound 10 µM) 94.5% [middle of 13 runs]
> 10 µM: IC50 [1]

Cc1cccc(N(C)C(=O)C2C(O)CCN2c2nc(C)cc(C(F)(F)F)c2C#N)c1 (stereo not given)
> 10 µM: IC50 (compound alone, run of 11/27/2023) | IC50 [1]
inactive: viability, T/C (compound 0.0316 µM) 97.4% [middle of 13 runs] | viability, T/C (compound 0.1 µM) 99% [middle of 13 runs] | viability, T/C (compound 0.316 µM) 100% [middle of 13 runs] | viability, T/C (compound 1 µM) 105% [middle of 13 runs] | viability, T/C (compound 3.16 µM) 104% [middle of 13 runs] | viability, T/C (compound 10 µM) 102% [middle of 12 runs]

CC(C)n1c(=O)n(C)c2cnc3cc(F)c(-c4ccc(OCCCN5CCCCC5)nc4)cc3c21
> 10 µM: IC50 (curve of compound)
inactive: viability, T/C (compound 0.0316 µM) 112% and 102% and 72.9% | viability, T/C (compound 0.1 µM) 97% and 109% and 75% | viability, T/C (compound 0.316 µM) 106% and 93% and 74.8% | viability, T/C (compound 1 µM) 107% and 94.6% and 79.2% | viability, T/C (compound 3.16 µM) 108% and 101% and 85.2% | viability, T/C (compound 10 µM) 101% and 96% and 72.1%

C#Cc1c(F)ccc2cc(O)cc(-c3ncc4c(N5CC6CCC(C5)N6)nc(OCC56CCCN5CC(F)C6)nc4c3F)c12 (stereo not given)
> 10 µM and 3.54 µM: IC50 (curve of compound)
inactive: viability, T/C (compound 0.0316 µM) 101% (2×) and 104% | viability, T/C (compound 0.1 µM) 90.4% and 90.9% and 90.6% | viability, T/C (compound 0.316 µM) 104% and 103% and 97.6% | viability, T/C (compound 1 µM) 107% and 71.8% and 104% | viability, T/C (compound 3.16 µM) 109% and 54.8% and 93.5% | viability, T/C (compound 10 µM) 72.4% and 33.1% and 66.3%
